Results as given in patent US20130143958A1, “DOSAGE UNIT COMPRISING A PROSTAGLANDIN ANALOG FOR TREATING CONSTIPATION” (priority 2001, published 2013).

Legend:
[1] = cited from earlier work; for effect on the intestine: administered in pharmacological doses
[2] = system: volunteers; experiment: Phase Ia single rising dose study, safety, tolerance and bowel movement frequency; assay type: in vivo, human
Method: (§1) The safety and tolerance of oral Compound A (13,14-dihydro-15-keto-16,16-difluoro-PGE1) was evaluated in 16 volunteers in a single-dose Phase I study (Phase Ia) at rising per-person doses of 6 μg, 12 μg, 24 μg, 48 μg, 72 μg, and 96 μg compared and in 24 volunteers in a multiple-dose Phase I study (Phase Ib) at rising per-person doses of 24 μg, 30 μg, and 36 μg of Compound A administered three times a day (TID) (i.e., total daily per person doses of 72 μg, 90 μg and 108 μg) for 6 days.
96 μg was the maximum tolerated single oral Compound A dose. […] These occurred in 13 of the 17 volunteers and all resolved. Volunteers receiving placebo experienced five AEs. Most AEs could be categorized as either responses or events commonly reported in Phase I clinical trials (such as headache and lightheadedness) or expected pharmacodynamic responses of Compound A (such as loose bowel movements, diarrhea and abdominal cramping).
Bowel movement frequency was assessed during the 24 hour period after dosing for each dose-level group. Bowel movements were experienced in the placebo and in all active dose groups. […] Compared to only three of twelve subjects experiencing bowel movements in the placebo group, all six subjects in the 96 μg Compound A group experienced bowel movements. Furthermore, the average number of bowel movements per subject in this Compound A group (1.5) was three times greater than the average number of bowel movements per subject in the placebo group (0.5).

[3] = system: patients; experiment: Phase II dosage study in constipation, 21 days; assay type: in vivo, human; details: for daily average number of spontaneous bowel movements vs placebo: Week 1 and Week 2; for stool consistency: all post-baseline time points
Method: All randomized patients who took at least one dose of double-blind study medication constituted the safety evaluable (SE) population. These patients were included in the demographic data, baseline characteristic data and safety analysis. For efficacy, the same data set was used and is referred to as the intent-to-treat (ITT) population. […] Key efficacy analyses were also performed on the per-protocol (PP) population, which excluded all data for the affected weeks for protocol violators. Patients whose treatments were adjusted were analyzed in their original treatment group (i.e., as randomized).
Eligible patients were treated with either placebo or total daily doses of 24 μg, 48 μg or 72 μg of Compound A for 21 days. One placebo or Compound A capsule was taken 3 times each day (AM, Noon, and PM). Compound A was administered as 24 μg oral capsules. Patients assigned to receive the total daily 24 μg Compound A dose took one Compound A capsule in the AM and one matching placebo capsule both at Noon and in the PM; patients assigned to receive the total daily 48 μg Compound A dose took one Compound A capsule in both the AM and PM and one matching placebo capsule at Noon; patients assigned to receive the total daily 72 μg Compound A dose took one Compound A capsule in the AM, at Noon, and in the PM.

[4] = system: volunteers; experiment: Phase Ib multiple rising dose study (TID for 6 days), safety, tolerance and bowel movement frequency; assay type: in vivo, human; details: for total bowel movements in group: placebo 31
Method: as §1
Compound A was determined to be optimal when administered at the 24 μg dose TID and determined to be safe and tolerable up to 36 μg when administered TID for at least 6 days.
Bowel movement frequency was assessed in this study as well. […] A total of 193 bowel movements were experienced in this study. Of these, 31 occurred in the placebo group, 70 in the 24 μg group, 51 in the 30 μg group and 41 in the 36 μg group.

Question: Which “most commonly reported side effect” value ([1]; in vivo) does the source give for `CCCCC(C)(O)C/C=C/[C@H]1[C@H](O)CC(=O)[C@@H]1CCCCCCC(=O)OC` (mixture of isomers) [misoprostol] here?
Answer: diarrhea

Question: Which “average number of bowel movements per subject relative to placebo group” value ([2]; 96 μg single dose, 24 hour period after dosing) does the source give for `CCCCC(F)(F)C(=O)CCC1C(O)CC(=O)C1CCCCCCC(=O)O` (centres unmarked) [Compound A, 13,14-dihydro-15-keto-16,16-difluoro-PGE1] here?
Answer: three

Question: And the “average number of bowel movements per subject” value ([2]; 96 μg single dose, 24 hour period after dosing, placebo 0.5)?
Answer: 1.5

Question: What about the “subjects experiencing bowel movements” value ([2]; 96 μg single dose, 24 hour period after dosing, placebo three of twelve) of the same molecule?
Answer: all six

Question: What about the “bowel movements compared to placebo” value ([2]; 24 hour period after dosing) of the same molecule?
Answer: trend for increased bowel movements

Question: And the “total number of AEs” value ([2]; in vivo)?
Answer: 49

Question: What about the “volunteers with AEs” value ([2]; in vivo) of the same molecule?
Answer: 13 of the 17

Question: What about the dose-limiting toxicity ([2]; in vivo, po) of the same molecule?
Answer: nausea

Question: And the “maximum tolerated single per-person dose” value ([2]; single oral dose)?
Answer: 96 µg

Question: What about the “proportion of patients who had a spontaneous bowel movement on Day 1” value ([3]; 48 μg total daily dose) of the same molecule?
Answer: statistically significant increase

Question: What about the “daily average number of spontaneous bowel movements vs placebo” value ([3]; 48 μg total daily dose) of the same molecule?
Answer: statistically significant increases

Question: And the constipation severity ([3]; 48 μg total daily dose, Week 3)?
Answer: Statistically significant improvements

Question: And the stool consistency ([3]; 48 μg total daily dose)?
Answer: Statistically significant improvements

Question: And the “proportion of patients who had a spontaneous bowel movement on Day 1” value ([3]; 72 μg total daily dose)?
Answer: statistically significant increase

Question: And the “daily average number of spontaneous bowel movements vs placebo” value ([3]; 72 μg total daily dose)?
Answer: statistically significant increases

Question: What about the constipation severity ([3]; 72 μg total daily dose, Weeks 2 and 3) of the same molecule?
Answer: Statistically significant improvements

Question: And the stool consistency ([3]; 72 μg total daily dose)?
Answer: Statistically significant improvements

Question: And the minimum effective dose ([3]; based on statistical analyses)?
Answer: 48 μg per day

Question: And the “overall efficacy, relief of constipation” value ([3]; doses as low as 24 μg per day)?
Answer: tended to relieve constipation

Question: And the “total bowel movements in group” value ([4]; 24 μg group TID)?
Answer: 70

Question: What about the “total bowel movements in group” value ([4]; 30 μg group TID) of the same molecule?
Answer: 51

Question: What about the “maximum tolerated multiple dose as total daily dose” value ([4]; 36 μg TID) of the same molecule?
Answer: 108 µg

Question: And the “total bowel movements in group” value ([4]; 36 μg group TID)?
Answer: 41

Question: What about the “best tolerated effective dose” value ([4]; TID, healthy volunteers) of the same molecule?
Answer: 24 µg

Question: And the optimal dose ([4]; administered TID)?
Answer: 24 µg

Question: And the “central nervous system or physical abnormalities” value ([4]; in vivo)?
Answer: no central nervous system or physical abnormalities observed

Question: And the “main dose limiting side effect” value ([4]; in vivo)?
Answer: nausea

Question: And the “safe and tolerable dose” value ([4]; in vivo)?
Answer: up to 36 μg

Question: And the “vital signs and ECG measurements” value ([4]; in vivo)?
Answer: normal

Question: What about the “maximum tolerated multiple per-person dose” value ([4]; oral, taken TID, 6 days) of the same molecule?
Answer: 36 µg

Question: With `CCCCC[C@H](O)/C=C/[C@H]1[C@H](O)CC(=O)[C@@H]1C/C=C\CCCC(=O)O` [PGE2] as the molecule, how does the “effect on the intestine” value [1] read?
Answer: stimulate intestinal transit and to cause diarrhea

Question: Which “effect on the intestine” value [1] does the source give for `CCCCC[C@H](O)/C=C/[C@@H]1[C@@H](C/C=C\CCCC(=O)O)[C@@H](O)C[C@H]1O` [PGF2α] here?
Answer: stimulate intestinal transit and to cause diarrhea
